These results are taken from patent publication US20060014812A1, “Use of estrogen related receptor-modulating aryl ethers” (priority 2004, published 2006).

Structures are written as SMILES. pIC50, pKd: −log10 of the molar value.

For one assay, the target named is T1, ERR-α (Homo sapiens, UniProt P11474).
T1 construct: expressed in transfected cells; host or cells: HEK293E
T1 sequence (P11474 1-423): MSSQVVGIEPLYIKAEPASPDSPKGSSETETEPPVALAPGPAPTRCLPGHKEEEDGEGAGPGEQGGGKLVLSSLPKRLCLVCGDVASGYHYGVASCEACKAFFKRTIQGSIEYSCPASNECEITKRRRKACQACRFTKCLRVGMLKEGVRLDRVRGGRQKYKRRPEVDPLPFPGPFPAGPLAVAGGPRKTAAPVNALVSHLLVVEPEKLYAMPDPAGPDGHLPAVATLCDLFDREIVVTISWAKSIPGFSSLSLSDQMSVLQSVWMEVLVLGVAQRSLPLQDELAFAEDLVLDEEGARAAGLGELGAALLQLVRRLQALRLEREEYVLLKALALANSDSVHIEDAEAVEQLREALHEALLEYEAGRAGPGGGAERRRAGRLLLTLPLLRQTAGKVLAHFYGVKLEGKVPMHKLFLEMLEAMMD
Description: 2-Hybrid cell based luciferase reporter assay (pBIND-Gal4-ERR-α / pACT-SRC2) in HEK293E cells. The settings on record: 24 hours compound treatment, firefly luciferase normalized to Renilla, average from three independent experiments. The procedure: A cell based reporter assay was also used to determine the functional response of the ERR-α hits. Transfections were performed in HEK293E cells that were maintained in DMEM supplemented in glutamine and 10% FBS. Co-transfections of 4 μg of a luciferase reporter plasmid and 4 μg of each pBIND-Gal4-ERR-α and pACT-SRC2 plasmids per T-75 flask were done using Lipofectamine as per manufacturers instructions. Twenty-four hours post-transfection, the cells were seeded in 96-well plates at density of 50,000 cells per well in assay media (DMEM phenol free, 5% charcoal stripped FBS). The cells were allowed to adhere to the bottom of the wells (approximately 5 hours post-seeding) and the compounds were dosed and the final concentration of DMSO was kept below 0.3%. After 24 hours of compound treatment cells were lysed and treated with the Promega Dual-Glo system. Firefly Luciferase activity was read using a luminescence plate reader, and data were normalized against Renilla luciferase activity. Data were fitted using subroutines available from GraphPad. The reported IC50 values shown in the table below are the average from three independent experiments for the compounds tested.

In assay [1] the target is T2, ligand binding domain of ERR-α (aa 183-424) (Homo sapiens, UniProt P11474).
T2 construct: His tag (N); thrombin cleavage site (N); made in house; host or cells: E. coli BL21(DE3+)
T2 sequence (P11474 183-423 limits assumed): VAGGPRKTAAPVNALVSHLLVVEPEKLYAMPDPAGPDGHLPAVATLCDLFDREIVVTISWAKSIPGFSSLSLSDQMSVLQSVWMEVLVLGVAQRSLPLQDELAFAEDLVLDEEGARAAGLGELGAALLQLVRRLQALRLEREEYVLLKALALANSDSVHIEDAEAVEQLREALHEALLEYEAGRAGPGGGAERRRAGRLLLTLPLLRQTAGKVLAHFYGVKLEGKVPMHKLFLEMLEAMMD
Description: ThermoFluor thermal-shift binding affinity screen against ERR-α ligand binding domain. The settings on record: 100 μM test compound, 0.1 mg/mL ERR-α, pH 7.6, Kd estimated from melting temperature shift at reference temperature, read-out: TF Kd. The method, then:
The ligand binding domain of ERR-α (aa 183-424) was subcloned in frame with the N-terminal His tag and the cleavable thrombin site in pET28. The protein was expressed in BL21(DE3^+) following induction with 100 μM IPTG at 16° C. Cells were harvested after 16 hours (h) of induction and lysed in 20 mM Tris pH 7.5, 500 mM NaCl, 5 mM imidazole, 5% glycerol, protease inhibitor cocktail (-EDTA) and 2 mM β-ME. Insoluble material was removed by centrifugation at 40,000×g for 1 hr. Clarified homogenate was applied on a Ni-NTA column and after applying an imidazole gradient the protein was eluted. The protein was further purified on size exclusion chromatography to an apparent homogeneity of 95% as judged by SDS-PAGE chromatography.
Binding affinities of compounds were determined by screening against the ligand binding domain of ERR-α using ThermoFluor® technology (U.S. Pat. No. 6,020,141 and U.S. Pat. No. 6,036,920, and Journal of Biomolecular Screening 6 (6), […], pgs 429-440). Assay plates were prepared by dispensing 2 μL of a protein-dye solution and 2 μL of the test compound in a 384-well plate. The conditions used in the screen were: 0.1 mg/mL ERR-α, 25 mM Na-phosphate buffer at pH 7.6, 200 mM NaCl, 10% glycerol, 16 μM ANS, 2% DMSO and the final concentration of test compound was 100 μM. Finally 1 μL of mineral oil was dispensed on top to prevent evaporation during the high throughput screen (HTS). ThermoFluor® is an HTS assay that measures protein unfolding based on fluorescence detection of the denatured form of the protein. The reporter for the protein unfolding event is the environmentally sensitive dye ANS that is incorporated in the screening buffer. During a typical experiment the 384-well plate is heated at a ramping rate of 1° C./min and the thermal unfolding of the protein is monitored at 1° C. intervals by measuring fluorescence changes detected through a CCD camera. Captured images are integrated and a melting curve is generated that relates fluorescence to fraction of unfolded protein as a function of temperature. For the ERR-α screen, data were collected from 30 to 80° C. at 1° C. intervals and the protein melted under the screening conditions with a characteristic melting temperature, Tm, of 52.1° C. Hits were identified from the screen by measuring an increase in the melting temperature of the protein.
In order to estimate binding affinities, it was taken into account that the oligomeric state of ERR-α, which is a dimer (N2), and that of a single ligand (Lf) can interact per monomer subunit with equal affinity. The melting curve for such a system is described by the following three equilibria: [formula] The first equilibrium describes the denaturation of ERR-α dimers; the second equilibrium describes the dissociation of the first ligand from the single ligand occupied ERR-α dimers (N2L); and the third equilibrium describes the dissociation of the second ligand from the fully occupied ERR-α dimers (N2L2).
Following the derivations of Brandts and Lin (Biochemistry, 29, 6967, 1990) the dissociation constants for the ligands (Kd1^t^m) can be determined at T=Tm for any ligand concentration Lt by solving numerically the conservation of mass equations: [formula] and Ku is in the unfolding equilibrium constant for ERR-α dimers that is calculated from the melting curve of the protein in the absence of ligand as described by Pantoliano et al. (J. Biomolecular Screening, 6, 429, 2001) and Bowie & Sauer (Biochemistry, 28, 7139, 1989).
To compare dissociation constants at a common reference temperature, Tref, the following equation was used: [formula] where • Kd^ref=is the dissociation constant of the ligand at a reference temperature Tref • ΔHb^ref=is the binding enthalpy of the ligand to the protein at a reference temperature Tref. […]

Consider `COc1cc(/C=C(\C#N)c2nn(-c3ccccc3)c(N)c2C#N)ccc1Oc1ccc(C(F)(F)F)cc1[N+](=O)[O-]` [Example 1, 5-Amino-3-{1-cyano-2-[3-methoxy-4-(2-nitro-4-trifluoromethyl-phenoxy)-phenyl]vinyl}-1-phenyl-1H-pyrazole-4-carbonitrile], for which, at ERR-α, the pIC50 was 5.22. Besides, the pKd in assay [1] is 5.22. `N#C/C(=C\c1ccc(Oc2ccc(C(F)(F)F)cc2[N+](=O)[O-])cc1)c1nn(-c2ccccc2)c(N)c1C#N` [Example 2, 5-Amino-3-{1-cyano-2-[4-(2-nitro-4-trifluoromethyl-phenoxy)-phenyl]-vinyl}-1-phenyl-1H-pyrazole-4-carbonitrile] showed a pIC50 at ERR-α of 5.11. Besides, the pKd in assay [1] is 5.11. For `COc1cc(/C=C(\C#N)c2nn(-c3ccccc3)c(N)c2C#N)ccc1Oc1ccc([N+](=O)[O-])c(C(F)(F)F)c1` [Example 3, 5-Amino-3-{1-cyano-2-[3-methoxy-4-(4-nitro-3-trifluoromethyl-phenoxy)-phenyl]-vinyl}-1-phenyl-1H-pyrazole-4-carbonitrile], the pIC50 on ERR-α is 5.77. The pKd in assay [1] is 5.77. Take `COc1cc(/C=C(\C#N)c2nn(-c3ccccc3)c(N)c2C#N)ccc1Oc1ccc(C#N)c(C(F)(F)F)c1` [Example 4, 5-Amino-3-{1-cyano-2-[4-(4-cyano-3-trifluoromethyl-phenoxy)-3-methoxy-phenyl]-vinyl}-1-phenyl-1H-pyrazole-4-carbonitrile]: the pIC50 against ERR-α is 5.84. Besides, in assay [1], the pKd was 5.84.

`N#C/C(=C\c1ccc(Oc2ccccc2)cc1)c1nn(-c2ccccc2)c(N)c1C#N` [Example 5, 5-Amino-3-[1-cyano-2-(4-phenoxy-phenyl)-vinyl]-1-phenyl-1H-pyrazole-4-carbonitrile] showed a pIC50 on ERR-α of 4.59. Besides, the pKd in assay [1] is 4.59. `COc1cc(/C=C2\SC(N)=NC2=O)ccc1Oc1ccc(C(F)(F)F)cc1[N+](=O)[O-]` [Example 7, 2-Amino-5-[3-methoxy-4-(2-nitro-4-trifluoromethyl-phenoxy)-benzylidene]-thiazol-4-one]: the pIC50 on ERR-α is 6.30. For the same molecule, the pKd in assay [1] was 6.44.

On to `COc1cc(/C=C(\C#N)c2ccccn2)ccc1Oc1ccc(C(F)(F)F)cc1[N+](=O)[O-]` [Example 27, 3-[3-Methoxy-4-(2-nitro-4-trifluoromethyl-phenoxy)-phenyl]-2-pyridin-2-yl-acrylonitrile], for which the pKd in assay [1] is 5.86. Same read-out and setting: then `COc1cc(/C=C(\C#N)C(=O)c2ccccc2)ccc1Oc1ccc(C(F)(F)F)cc1[N+](=O)[O-]` [Example 28, 2-Benzoyl-3-[3-methoxy-4-(2-nitro-4-trifluoromethyl-phenoxy)-phenyl]-acrylonitrile], with 6.22.

As to `COc1cc(/C=C(/C(=O)c2cccs2)C(=O)C(F)(F)F)ccc1Oc1ccc(C(F)(F)F)cc1[N+](=O)[O-]` [Example 29, 4,4,4-Trifluoro-2-[3-methoxy-4-(2-nitro-4-trifluoromethyl-phenoxy)-benzylidene]-1-thiophen-2-yl-butane-1,3-dione], in assay [1], the pKd is 4.81. Take `COc1cc(/C=C2\C(=O)N(c3ccccc3)N=C2C)ccc1Oc1ccc(C(F)(F)F)cc1[N+](=O)[O-]` [Example 30, 4-[3-Methoxy-4-(2-nitro-4-trifluoromethyl-phenoxy)-benzylidene]-5-methyl-2-phenyl-2,4-dihydro-pyrazol-3-one]: the pKd in assay [1] was 5.94. Same read-out and setting: the value for `COc1cc(/C=C2/NC(=S)NC2=O)ccc1Oc1ccc(C(F)(F)F)cc1[N+](=O)[O-]` [Example 31, 5-[3-4-(2-nitro-4-trifluoromethyl-phenoxy)-benzylidene]-2-thioxo-imidazolidin-4 4-one] was 5.66. The same measure, in the same setting: the value for `COc1cc(/C=C2\C(=O)ON=C2c2ccccc2)ccc1Oc1ccc(C(F)(F)F)cc1[N+](=O)[O-]` [Example 32, 4-[3-4-(2-nitro-4-trifluoromethyl-phenoxy)-benzylidene]-3-phenyl-4H-isoxazol-5-one] was 6.10; that for `COc1cc(C=C2C(=O)c3ccccc3C2=O)ccc1Oc1ccc(C(F)(F)F)cc1[N+](=O)[O-]` [Example 33, 2-[3-4-(2-nitro-4-trifluoromethyl-phenoxy)-benzylidene]-indan-1,3-dione] was 6.33.

For `COC(=O)c1ccc(Oc2ccc(C=C3C(=O)c4ccccc4C3=O)cc2OC)c([N+](=O)[O-])c1` [Example 35, 4-[4-(1,3-Dioxo-indan-2-ylidenemethyl)-2-methoxy-phenoxy]-3-nitro-benzoic acid methyl ester], the pKd in assay [1] was 6.28. On the same count and under the same terms, the value for `CCN1C(=O)/C(=C\c2ccc(Oc3ccc(C(F)(F)F)cc3[N+](=O)[O-])c(OC)c2)SC1=S` [Example 36, 3-Ethyl-5-[3-methoxy-4-(2-nitro-4-trifluoromethyl-phenoxy)-benzylidene]-2-thioxo-thiazolidin-4-one] was 4.69; that for `COc1cc(/C=C2\SC(=O)NC2=O)ccc1OCc1ccc(F)cc1Cl` [Example 37, 5-[4-(2—Chloro-4-fluoro-benzyloxy)-3-methoxy-benzylidene]-thiazolidine-2,4-dione] was 6.38; that for `COc1cc(/C=C2\SC(=O)NC2=O)ccc1OCc1cccc(F)c1` [Example 38, 5-[4-(3-Fluoro-benzyloxy)-3-methoxy-benzylidene]-thiazolidine-2,4-dione] was 5.50. Still for that read-out and setting: the value for `COc1cc(C=C2C(=O)c3ccccc3C2=O)ccc1OCc1cccc(F)c1` [Example 40, 2-[4-(3-Fluoro-benzyloxy)-3-methoxy-benzylidene]-indan-1,3-dione] was 4.75.

The pIC50 is the IC50 on a negative log10 scale, so that one unit is a factor of ten. Read a low pIC50 as a high IC50. As usually defined, the pKd is the negative decadic logarithm of the Kd, by convention in mol/L.
